From patent publication US20220105051A1, “COMPOUNDS FOR INCREASING MHC-I EXPRESSION AND MODULATING HISTONE DEACETYLASE ACTIVITY” (Cava Healthcare Inc., priority 2019, published 2022)
Entries after “also recorded” stand apart in the source; their conditions may differ.

Legend:
class I/II HDACs = test: HDAC-Glo I/II Assay in A9 cells; type: cell-based, murine; details: for HDAC activity at the lowest concentrations: 1 nM-100 nM; for class I/II HDAC activity: 1 nM-1 μM; for HDAC activity at higher concentrations: up to 1 uM
Procedure: Compounds P02-113 and P03-97-1 were analyzed for their effect on histone deacetylase activity in the A9 cell line, using the HDAC-Glo™ I/II Assay and Screening System (Promega). The linear range was established for the A9 cells in a black-walled, clear-bottomed 96 well plate (PerkinElmer). Cells were diluted to 10^5 cells/mL and serial diluted by two fold, to a final concentration of 98 cells/ml. All dilutions were plated in triplicates in a volume of 100 ul per well. Cells were left overnight at 37° C. for 24 hours before addition of HDAC class I/II reagent. Luminescence was read after 30 minute incubation with HDAC class I/II reagent. After determination of an optimal cell density of 30,000 cells/well, cells were plated in 96 well plate and left for 24 hours at 37° C. Media was used as a blank control, as well a positive control was included consisting of HeLa cells provided in the HDAC assay kit. […] HDAC class I/II reagent was then added and incubated for 30 minutes before luminescence was measured using the Infinite M200 (Tecan) and i-control software (Tecan).
HDAC assays. To assess the effect of the compounds on the relative activity of histone deacetylase (HDAC) class I and II enzymes in the A9 cell line, we used the HDAC-Glo™ I/II Assay and Screening System (Promega). The linear range was established for the A9 cells following the manufacturer's instructions. Thirty thousand cells per well were plated in clear-bottom 96-well plates (Perkin Elmer) and plates were incubated at 37° C. […] Cell culture media was used as a blank control and HeLa cells provided in the HDAC assay kit were used as a positive control. HDAC class I/II reagent was then added and incubated for 30 minutes before luminescence was measured using the Infinite M200 (Tecan) and i-control software (Tecan).

HDAC2 = target: T1, HDAC2 (Homo sapiens, UniProt Q92769); test: Individualized HDAC assay, HDAC2; type: biochemical; details: purified enzyme, 5 to 0.02 μM
T1 construct: purchased BPS Biosciences
T1 sequence (Q92769 whole entry): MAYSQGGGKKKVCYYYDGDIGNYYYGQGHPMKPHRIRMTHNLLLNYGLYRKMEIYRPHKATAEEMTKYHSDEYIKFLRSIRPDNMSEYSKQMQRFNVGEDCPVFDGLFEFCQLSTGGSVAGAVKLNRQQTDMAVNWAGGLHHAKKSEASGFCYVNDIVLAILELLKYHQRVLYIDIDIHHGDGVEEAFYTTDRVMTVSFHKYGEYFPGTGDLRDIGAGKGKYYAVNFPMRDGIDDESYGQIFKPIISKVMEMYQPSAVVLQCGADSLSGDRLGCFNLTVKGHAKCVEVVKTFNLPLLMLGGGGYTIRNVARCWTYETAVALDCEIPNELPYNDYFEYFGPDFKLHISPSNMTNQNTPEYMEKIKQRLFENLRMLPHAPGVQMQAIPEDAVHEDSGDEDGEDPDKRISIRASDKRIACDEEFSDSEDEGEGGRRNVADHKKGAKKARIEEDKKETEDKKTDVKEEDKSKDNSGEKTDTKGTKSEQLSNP
Procedure: The activity of the curcuphenol analogues was assessed with purified HDAC enzymes from all classes I, II, and IV, as well as a select member of HDAC class III (SIRT1). HDACs 1-9 and SIRT1 were evaluated using HDAC Fluorogenic Assay Kits (BPS Biosciences). All assays were completed in black-sided clear-bottom 96 well plates (PerkinElmer), and all treatments were plated in triplicates. Treatment started at 5 μM and was two-fold diluted to a concentration 0.02 μM. The assays were measured using the Synergy HI hybrid reader (BioTek) and Gen5 software (BioTek), excitation was set to 360 nm and detection was measured at 450 nm with a gain of 100. […] Luminescence was read 30 minutes after HDAC-Glo™I/II reagent was added using the Synergy HI hybrid reader (BioTek) and Gen5 software (Bio-Tek). […] The relative mean of activity of the HDAC being measured was determined and all wells that received treatment were divided this average, to give a percentage of activity.
To evaluate the effect of the compounds on specific HDACs, their activity was assessed with purified HDAC enzymes from all classes I, II, and IV, as well as a select member of HDAC class III (SIRT1). HDACs 1-9 and SIRT1 were evaluated using HDAC Fluorogenic Assay Kits (BPS Biosciences) following the manufacturer's recommendations. […] The assays were measured using the Synergy HI hybrid reader (BioTek) and Gen5 software (Bio-Tek). […]

HDAC7 = target: T2, HDAC7 (Homo sapiens, UniProt Q8WUI4); test: Individualized HDAC assay, HDAC7; type: biochemical; details: purified enzyme, 5 to 0.02 μM
T2 construct: purchased BPS Biosciences
T2 sequence (Q8WUI4 1-952): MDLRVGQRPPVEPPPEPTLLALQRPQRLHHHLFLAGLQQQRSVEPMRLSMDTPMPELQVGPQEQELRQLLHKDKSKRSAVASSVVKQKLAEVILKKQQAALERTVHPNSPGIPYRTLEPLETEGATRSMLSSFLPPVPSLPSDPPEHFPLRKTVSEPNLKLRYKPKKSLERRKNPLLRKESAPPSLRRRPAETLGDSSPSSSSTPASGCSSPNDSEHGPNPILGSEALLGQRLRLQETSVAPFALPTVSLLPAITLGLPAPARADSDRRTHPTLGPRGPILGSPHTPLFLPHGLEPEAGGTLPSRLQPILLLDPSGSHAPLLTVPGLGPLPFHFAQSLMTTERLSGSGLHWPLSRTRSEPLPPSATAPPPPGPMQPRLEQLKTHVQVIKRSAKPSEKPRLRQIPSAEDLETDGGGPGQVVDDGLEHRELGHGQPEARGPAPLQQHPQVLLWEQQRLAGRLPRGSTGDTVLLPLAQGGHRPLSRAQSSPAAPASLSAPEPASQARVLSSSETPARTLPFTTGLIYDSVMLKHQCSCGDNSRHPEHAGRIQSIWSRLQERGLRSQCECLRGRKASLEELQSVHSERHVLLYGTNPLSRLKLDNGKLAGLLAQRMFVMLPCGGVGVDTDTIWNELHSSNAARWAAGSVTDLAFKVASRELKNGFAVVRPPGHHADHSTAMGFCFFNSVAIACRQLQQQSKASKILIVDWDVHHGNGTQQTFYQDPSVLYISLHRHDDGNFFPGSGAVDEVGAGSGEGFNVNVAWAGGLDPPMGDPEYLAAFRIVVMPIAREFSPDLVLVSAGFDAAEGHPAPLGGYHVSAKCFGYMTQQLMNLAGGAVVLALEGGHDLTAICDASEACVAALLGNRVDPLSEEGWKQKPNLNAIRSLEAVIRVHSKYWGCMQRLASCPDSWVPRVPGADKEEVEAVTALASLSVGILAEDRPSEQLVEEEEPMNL
Procedure: (§1) The activity of the curcuphenol analogues was assessed with purified HDAC enzymes from all classes I, II, and IV, as well as a select member of HDAC class III (SIRT1). HDACs 1-9 and SIRT1 were evaluated using HDAC Fluorogenic Assay Kits (BPS Biosciences). All assays were completed in black-sided clear-bottom 96 well plates (PerkinElmer), and all treatments were plated in triplicates. Treatment started at 5 μM and was two-fold diluted to a concentration 0.02 μM. The assays were measured using the Synergy HI hybrid reader (BioTek) and Gen5 software (BioTek), excitation was set to 360 nm and detection was measured at 450 nm with a gain of 100. Alternatively HDAC 10 and 11 (BPS Biosciences) were optimized for HDAC concentration using the HDAC-Glo™ I/II Assay and Screening System (Promega). Following optimization each HDAC was run following the Promega protocol in black-sided clear-bottomed 96 well plates in triplicates with same treatments listed above (PerkinElmer). Luminescence was read 30 minutes after HDAC-Glo™I/II reagent was added using the Synergy HI hybrid reader (BioTek) and Gen5 software (Bio-Tek). […] To calculate percent activity, the average of blank wells was subtracted from all treatment groups. The relative mean of activity of the HDAC being measured was determined and all wells that received treatment were divided this average, to give a percentage of activity.
(§2) To evaluate the effect of the compounds on specific HDACs, their activity was assessed with purified HDAC enzymes from all classes I, II, and IV, as well as a select member of HDAC class III (SIRT1). HDACs 1-9 and SIRT1 were evaluated using HDAC Fluorogenic Assay Kits (BPS Biosciences) following the manufacturer's recommendations. Compound treatment started at 5 μM and was two-fold diluted to a concentration 0.02 μM. […] The assays were measured using the Synergy HI hybrid reader (BioTek) and Gen5 software (Bio-Tek). […] To calculate the fold change in HDAC activity, the values from each treated well were divided by the relative mean of activity of the specific HDAC being measured.

HDAC9 = target: T3, HDAC9 (Homo sapiens, UniProt Q9UKV0); test: Individualized HDAC assay, HDAC9; type: biochemical; details: purified enzyme, 5 to 0.02 μM
T3 construct: purchased BPS Biosciences
T3 sequence (Q9UKV0 whole entry): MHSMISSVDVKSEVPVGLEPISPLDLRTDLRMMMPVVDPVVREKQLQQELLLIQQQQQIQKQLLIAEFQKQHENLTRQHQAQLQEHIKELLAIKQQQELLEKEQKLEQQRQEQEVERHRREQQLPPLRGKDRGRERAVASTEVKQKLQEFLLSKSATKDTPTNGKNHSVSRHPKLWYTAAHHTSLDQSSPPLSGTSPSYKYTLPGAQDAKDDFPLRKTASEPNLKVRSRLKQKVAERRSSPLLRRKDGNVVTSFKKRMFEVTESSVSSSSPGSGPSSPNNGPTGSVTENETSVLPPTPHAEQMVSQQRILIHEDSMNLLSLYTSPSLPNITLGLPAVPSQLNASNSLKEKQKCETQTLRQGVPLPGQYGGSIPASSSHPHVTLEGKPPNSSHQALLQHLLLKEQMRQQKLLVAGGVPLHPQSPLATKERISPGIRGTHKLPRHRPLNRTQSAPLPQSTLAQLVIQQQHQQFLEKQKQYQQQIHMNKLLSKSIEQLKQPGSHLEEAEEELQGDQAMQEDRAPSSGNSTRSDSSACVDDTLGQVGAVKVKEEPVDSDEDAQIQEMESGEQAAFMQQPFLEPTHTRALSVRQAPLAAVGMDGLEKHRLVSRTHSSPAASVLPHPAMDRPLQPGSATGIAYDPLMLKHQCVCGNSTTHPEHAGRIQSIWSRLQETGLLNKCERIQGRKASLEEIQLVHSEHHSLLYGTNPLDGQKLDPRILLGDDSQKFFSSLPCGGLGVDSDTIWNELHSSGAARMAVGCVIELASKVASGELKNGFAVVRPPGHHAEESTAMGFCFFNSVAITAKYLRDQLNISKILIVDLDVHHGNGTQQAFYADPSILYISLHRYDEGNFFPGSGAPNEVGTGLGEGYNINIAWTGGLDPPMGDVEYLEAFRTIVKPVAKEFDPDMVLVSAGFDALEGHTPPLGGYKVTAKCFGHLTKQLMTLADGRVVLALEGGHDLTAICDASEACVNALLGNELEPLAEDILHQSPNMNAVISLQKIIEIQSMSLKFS
Procedure: as §1, §2

With CC(C)=CCCCc1ccc(C)cc1O [P02-113] the “concentration of peak in HDAC activity” value (class I/II HDACs) was “around 180 nM”, the “HDAC activity at the lowest concentrations” value (class I/II HDACs) was “induction of HDAC activity” and the “class I/II HDAC activity” value (class I/II HDACs) was “increase in class I/II HDAC activity”. The “HDAC activity at higher concentrations” value (class I/II HDACs) was “started to reduce it effect at higher concentrations; also recorded: started to reduce the effect at higher concentrations”, the HDAC2 activity (HDAC2) was “no significant change in HDAC activity” and the HDAC7 activity (HDAC7) was “no change in activity; also recorded: did not affect the activity; also recorded: unaffected”. The HDAC9 activity (HDAC9) was “no change in activity; also recorded: did not affect the activity; also recorded: unaffected”.

For COc1ccc(C(C)CCC=C(C)C)c(O)c1 (stereo not shown) [P03-97-1], the “concentration of peak in HDAC activity” value (class I/II HDACs) was “around 180 nM”, the “HDAC activity at the lowest concentrations” value (class I/II HDACs) was “induction of HDAC activity” and the “class I/II HDAC activity” value (class I/II HDACs) was “increase in class I/II HDAC activity”. The “HDAC activity at higher concentrations” value (class I/II HDACs) was “maintained peak levels of HDAC activity”, the HDAC2 activity (HDAC2) was “no significant change in HDAC activity” and the HDAC7 activity (HDAC7) was “no change in activity; also recorded: unaffected”. For the same compound, the HDAC7 activity (HDAC7; listed as PO-3-97-1) was “did not affect the activity”, the HDAC9 activity (HDAC9) was “no change in activity; also recorded: unaffected” and the HDAC9 activity (HDAC9; listed as PO-3-97-1) was “did not affect the activity”.
